Experiments:
[1] = tested on: IL-2 stimulated pSTAT5 in Tall-1 T cells; assay: Cellular JAK3 potency assay: inhibition of IL-2 stimulated pSTAT5 in Tall-1 T cells; assay type: cell-based, human; details: Homo sapiens, TALL-1, IL-2 stimulated pSTAT5 in Tall-1 T cells; read-out: Tall-1 (pIC50) (converted)
Procedure, shortened: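 Tall-1 human T cells were preincubated with compound for 1 h at 37° C, then stimulated with IL-2 (300 ng/ml final) for 30 min. STAT5 phosphorylation in lysates was read by AlphaLisa bead emission, and IC50 from inhibition curves is given as pIC50 (mean±SD).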

JAK1 = target: T1, JAK1 (Homo sapiens, UniProt P23458); assay: Biochemical JAK1 kinase assay (LanthaScreen); details: read-out: JAK 1 (pKi) (converted)
T1 construct: GST; purchased Life Technologies
T1 sequence (P23458 whole entry): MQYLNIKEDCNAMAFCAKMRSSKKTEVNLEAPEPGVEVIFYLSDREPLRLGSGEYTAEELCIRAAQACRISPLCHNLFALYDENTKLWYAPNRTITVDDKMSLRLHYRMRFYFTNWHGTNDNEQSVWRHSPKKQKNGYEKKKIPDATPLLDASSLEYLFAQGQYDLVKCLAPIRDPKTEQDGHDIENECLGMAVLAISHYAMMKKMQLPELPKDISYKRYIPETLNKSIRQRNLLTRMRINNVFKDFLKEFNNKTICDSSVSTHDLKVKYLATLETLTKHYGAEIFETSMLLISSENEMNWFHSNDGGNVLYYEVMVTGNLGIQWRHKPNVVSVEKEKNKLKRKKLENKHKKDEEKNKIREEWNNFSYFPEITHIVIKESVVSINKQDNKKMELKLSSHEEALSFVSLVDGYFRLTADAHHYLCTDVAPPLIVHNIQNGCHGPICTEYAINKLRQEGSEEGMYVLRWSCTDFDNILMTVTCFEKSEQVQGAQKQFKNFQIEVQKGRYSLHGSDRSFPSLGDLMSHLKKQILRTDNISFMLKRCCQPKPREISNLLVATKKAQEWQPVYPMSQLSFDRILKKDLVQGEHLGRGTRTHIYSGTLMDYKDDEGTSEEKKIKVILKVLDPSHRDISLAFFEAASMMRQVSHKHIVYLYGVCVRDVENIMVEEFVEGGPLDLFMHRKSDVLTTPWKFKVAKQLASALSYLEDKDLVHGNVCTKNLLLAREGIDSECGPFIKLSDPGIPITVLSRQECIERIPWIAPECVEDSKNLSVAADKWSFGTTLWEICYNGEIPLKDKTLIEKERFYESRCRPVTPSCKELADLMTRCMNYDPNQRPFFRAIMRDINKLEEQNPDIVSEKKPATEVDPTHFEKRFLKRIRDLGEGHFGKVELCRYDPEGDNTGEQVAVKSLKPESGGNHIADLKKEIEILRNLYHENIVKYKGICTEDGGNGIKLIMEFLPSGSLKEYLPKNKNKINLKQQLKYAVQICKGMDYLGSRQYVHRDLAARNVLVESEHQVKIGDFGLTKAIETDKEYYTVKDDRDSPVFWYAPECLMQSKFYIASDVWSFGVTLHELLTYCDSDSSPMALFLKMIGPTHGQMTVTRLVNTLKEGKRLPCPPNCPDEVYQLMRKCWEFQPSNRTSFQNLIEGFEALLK
Procedure, shortened: (§1)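 TR-FRET readout (520/495 nm) using Tb-labelled pTyr701 antibody after EDTA stop, following 1 h ATP-started phosphorylation of GFP-STAT1 by recombinant GST-JAK. Compounds preincubated 1 h with enzyme and substrate; pIC50 from 4-parameter fit, Cheng-Prusoff gives pKi.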

[2] = tested on: IL-2 induced pSTAT5 in thymus; assay: Systemic target engagement: murine model of IL-2 induced pSTAT5 induction in thymus; assay type: in vivo, mouse
Description: IL-2 is an important cytokine underlying the pathophysiology of gastro-intestinal diseases such as […] bowel disease (IBD; Guan and Zhang. Mediators Inflamm, 2017; 4810258). IL-2 binds to cell surface receptors activating members of the Janus family of kinases (JAK), specifically JAK3, which then phosphorylates STAT5 and subsequently activates further transcription pathways. In this model, a dose of IL-2 was delivered systemically to mice to induce the phosphorylation of STAT5 (pSTAT5) which was then measured as the endpoint.
Adult male Balb/c mice from Harlan were used in the assay. Animals were administered test compound via oral gavage (PO, 10 or 30 mg/kg for single dose studies; 10-60 mg/kg for dose response studies) on the afternoon of the day prior to study and then in the morning on the day of study. Two hours after the second PO dose administration, mice were injected intraperitoneally (i.p.) with 100 μl of an appropriate IL-2 dose (for a total of 1-5 μg/mouse depending upon IL-2 batch; R&D Systems). 90-120 minutes after IL-2 insult, thymus samples were harvested.

[3] = tested on: oxazolone-induced colitis; assay: Mouse model of oxazolone-induced colitis; assay type: in vivo; details: 3 mg/kg (PO, BID)
Protocol: Oxazolone-induced colitis is an experimental model that has a histological resemblance to human ulcerative colitis (Heller et al. Immunology, 2002, 17, 629-638). Adult BALB/C mice from Harlan were used in the assay. On day 1, animals were lightly anesthetized with isoflurane and the hairs between the shoulder were carefully removed before oxazolone (4%, 150 μL, 4:1 acetone:olive oil formulation) or vehicle solution was slowly applied for skin sensitization. Seven days after skin sensitization, the mice were fasted around 6 hours prior, anesthetized with ketamine/xylazine injection, and a 1 mL syringe equipped with a 3.5-F catheter, filled with oxazolone solution, was inserted carefully about 4 cm into the colon of the mouse. Following insertion, 50 μL of the oxazolone solution (0.8% in 1:1 ethanol:water formulation) was injected very slowly (over 30 sec using an injection pump) into the colon. Drug treatment (PO, QD or BID or TID) or vehicle was initiated a day prior to the oxazolone intrarectal (IR) challenge. Two-day post oxazolone intrarectal challenge, the disease was assessed by treatment-blinded experimenters for each mouse according to the criteria score: stool consistency score (0, normal; 2, loose; 4, diarrhea), gross bleeding score (0, absence; 2, blood tinged; 4, presence); Combined stool score endpoint=stool consistency score+stool blood score.
Select compounds were tested in the assay.

JAK2 = target: T2, JAK2 (Homo sapiens, UniProt O60674); assay: Biochemical JAK2 kinase assay (LanthaScreen); details: read-out: JAK 2 (pKi) (converted)
T2 construct: GST; purchased Life Technologies
T2 sequence (O60674 whole entry): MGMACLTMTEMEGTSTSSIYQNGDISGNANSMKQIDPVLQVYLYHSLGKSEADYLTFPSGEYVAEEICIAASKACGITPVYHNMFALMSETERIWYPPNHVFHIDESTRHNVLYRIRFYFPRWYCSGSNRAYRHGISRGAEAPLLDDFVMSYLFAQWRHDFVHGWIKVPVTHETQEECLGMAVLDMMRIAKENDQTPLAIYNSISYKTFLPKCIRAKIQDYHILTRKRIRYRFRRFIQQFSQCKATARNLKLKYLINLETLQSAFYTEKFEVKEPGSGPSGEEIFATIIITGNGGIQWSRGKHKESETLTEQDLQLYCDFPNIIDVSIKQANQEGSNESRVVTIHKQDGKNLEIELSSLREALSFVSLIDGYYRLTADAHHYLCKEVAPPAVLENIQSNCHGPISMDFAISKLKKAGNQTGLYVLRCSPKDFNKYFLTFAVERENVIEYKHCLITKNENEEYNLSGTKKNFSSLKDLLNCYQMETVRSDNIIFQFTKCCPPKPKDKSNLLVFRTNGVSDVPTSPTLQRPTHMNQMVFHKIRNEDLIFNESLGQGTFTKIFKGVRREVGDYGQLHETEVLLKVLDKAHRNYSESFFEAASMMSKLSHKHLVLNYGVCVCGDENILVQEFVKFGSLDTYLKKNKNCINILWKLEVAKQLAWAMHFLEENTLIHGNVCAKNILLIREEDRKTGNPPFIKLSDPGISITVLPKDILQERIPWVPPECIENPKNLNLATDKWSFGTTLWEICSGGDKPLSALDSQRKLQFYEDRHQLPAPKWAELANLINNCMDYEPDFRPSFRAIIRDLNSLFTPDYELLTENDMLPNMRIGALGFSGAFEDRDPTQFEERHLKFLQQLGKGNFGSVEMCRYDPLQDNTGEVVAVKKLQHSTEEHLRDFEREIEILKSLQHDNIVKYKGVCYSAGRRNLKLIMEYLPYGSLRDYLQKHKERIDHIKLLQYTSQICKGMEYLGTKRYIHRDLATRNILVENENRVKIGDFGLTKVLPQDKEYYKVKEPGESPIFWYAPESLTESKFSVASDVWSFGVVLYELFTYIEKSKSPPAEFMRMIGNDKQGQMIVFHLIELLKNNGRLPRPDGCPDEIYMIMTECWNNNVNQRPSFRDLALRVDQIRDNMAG
Procedure, shortened: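 pKi values derive from pIC50 via Cheng-Prusoff, with IC50 from a 4-parameter fit of percent-inhibition TR-FRET data using Tb-anti-pSTAT1 (pTyr701) detection. Compound, GST-JAK2 and GFP-STAT1 substrate were pre-incubated 1 h, then ATP started a 1 h ambient reaction (HEPES pH 7.5, 10 mM MgCl2, 1% DMSO).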

Tyk2 = target: T3, Tyk2 (Homo sapiens, UniProt P29597); assay: Biochemical Tyk2 kinase assay (LanthaScreen); details: read-out: Tyk 2 (pKi) (converted)
T3 construct: GST; purchased Life Technologies
T3 sequence (P29597 whole entry): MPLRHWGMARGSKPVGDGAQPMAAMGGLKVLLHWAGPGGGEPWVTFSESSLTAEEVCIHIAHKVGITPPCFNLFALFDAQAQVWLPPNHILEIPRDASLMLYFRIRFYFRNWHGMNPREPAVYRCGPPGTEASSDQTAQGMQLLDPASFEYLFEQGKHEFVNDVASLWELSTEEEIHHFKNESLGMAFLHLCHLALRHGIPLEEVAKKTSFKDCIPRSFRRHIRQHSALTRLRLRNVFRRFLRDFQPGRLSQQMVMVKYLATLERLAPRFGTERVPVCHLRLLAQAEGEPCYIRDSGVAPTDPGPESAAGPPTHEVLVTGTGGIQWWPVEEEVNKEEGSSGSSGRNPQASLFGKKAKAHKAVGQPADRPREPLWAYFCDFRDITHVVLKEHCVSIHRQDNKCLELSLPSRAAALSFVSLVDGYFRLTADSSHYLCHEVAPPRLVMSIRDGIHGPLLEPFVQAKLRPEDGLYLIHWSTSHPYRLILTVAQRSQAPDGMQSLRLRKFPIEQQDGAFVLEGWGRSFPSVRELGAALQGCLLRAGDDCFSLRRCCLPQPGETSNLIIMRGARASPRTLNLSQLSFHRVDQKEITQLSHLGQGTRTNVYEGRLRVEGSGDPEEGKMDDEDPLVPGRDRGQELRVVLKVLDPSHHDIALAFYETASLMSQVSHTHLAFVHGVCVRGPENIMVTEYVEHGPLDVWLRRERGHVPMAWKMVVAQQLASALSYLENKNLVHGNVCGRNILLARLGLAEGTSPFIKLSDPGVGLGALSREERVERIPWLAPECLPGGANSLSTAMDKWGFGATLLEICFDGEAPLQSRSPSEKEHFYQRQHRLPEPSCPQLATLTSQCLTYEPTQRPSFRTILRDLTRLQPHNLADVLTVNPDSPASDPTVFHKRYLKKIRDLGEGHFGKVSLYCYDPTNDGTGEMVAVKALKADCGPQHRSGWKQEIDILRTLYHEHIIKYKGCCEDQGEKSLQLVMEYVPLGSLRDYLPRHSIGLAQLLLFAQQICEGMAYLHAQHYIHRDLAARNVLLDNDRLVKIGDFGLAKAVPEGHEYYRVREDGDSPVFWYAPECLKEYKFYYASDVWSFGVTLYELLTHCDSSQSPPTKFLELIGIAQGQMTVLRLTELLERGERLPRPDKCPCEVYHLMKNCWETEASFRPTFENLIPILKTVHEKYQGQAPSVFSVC
Procedure, shortened: as §1

In the case of `CN(C)C/C=C/C(=O)N1CC(COc2cc(-c3ccc(O)cc3)cc3[nH]ncc23)C1` [Compound 1, (E)-4-(dimethylamino)-1-(3-(((6-(4-hydroxyphenyl)-1H-indazol-4-yl)oxy)methyl)azetidin-1-yl)but-2-en-1-one], the IC50 [1] is reported as 31.6 to 200 nM, the Ki (JAK1) is reported as over 100 nM and the “inhibition of IL-2 induced pSTAT5 in thymus compared to vehicle” value (“inhibition … compared to vehicle” below) ([2]; PO, 10, 30, 60 and 100 mg/kg) is reported as “no significant inhibition”. For the same compound, the “combined stool score endpoint as compared with vehicle treated animals” value [3] was “statistically significant decrease”, the Ki (JAK2) was 10 to 100 nM and the Ki (Tyk2) was over 100 nM.

In the case of `C=CC(=O)N1CC[C@H](Oc2cc(-c3ccc(O)c(Cl)c3)cc3[nH]ncc23)C1` [Compound 2, (S)-1-(3-((6-(3-chloro-4-hydroxyphenyl)-1H-indazol-4-yl)oxy)pyrrolidin-1-yl)prop-2-en-1-one], the IC50 [1] is reported as under 31.6 nM, the Ki (JAK1) is reported as over 100 nM and the “inhibition … compared to vehicle” value ([2]; PO, 10, 30 and 60 mg/kg) is reported as “no significant inhibition”. For the same compound, the “combined stool score endpoint as compared with vehicle treated animals” value [3] was “statistically significant decrease”, the Ki (JAK2) was over 100 nM and the Ki (Tyk2) was over 100 nM.

`CN(C)C/C=C/C(=O)N1CC(C(C)(C)Oc2cc(-c3ccc(O)c(Cl)c3)cc3[nH]ncc23)C1` [Compound 3, (E)-1-(3-(2-((6-(3-chloro-4-hydroxyphenyl)-1H-indazol-4-yl)oxy)propan-2-yl)azetidin-1-yl)-4-(dimethylamino)but-2-en-1-one] was tested, and the IC50 [1] was 31.6 to 200 nM, the Ki (JAK1) was over 100 nM and the “inhibition … compared to vehicle” value ([2]; PO, 30 and 100 mg/kg) was “no significant inhibition”. The “combined stool score endpoint as compared with vehicle treated animals” value [3] was “statistically significant decrease”, the Ki (JAK2) was over 100 nM and the Ki (Tyk2) was over 100 nM.

`C=CC(=O)N1CC(COc2nc(-c3ccc(O)cc3)nc3[nH]ncc23)C1` [Compound 4, 1-(3-(((6-(4-hydroxyphenyl)-1H-pyrazolo[3,4-d]pyrimidin-4-yl)oxy)methyl)azetidin-1-yl)prop-2-en-1-one] was tested, and the IC50 [1] was 31.6 to 200 nM, the Ki (JAK1) was over 100 nM and the “inhibition … compared to vehicle” value ([2]; PO, 30 mg/kg) was “no significant inhibition”. The “combined stool score endpoint as compared with vehicle treated animals” value [3] was “statistically significant decrease”, the Ki (JAK2) was over 100 nM and the Ki (Tyk2) was over 100 nM.

With `CN(C)C/C=C/C(=O)N1CC(COc2cc(-c3ccc(O)c(F)c3)cc3[nH]ncc23)C1` [Compound 5, (E)-4-(dimethylamino)-1-(3-(((6-(3-fluoro-4-hydroxyphenyl)-1H-indazol-4-yl)oxy)methyl)azetidin-1-yl)but-2-en-1-one] the IC50 [1] was 31.6 to 200 nM, the Ki (JAK1) was over 100 nM and the “inhibition … compared to vehicle” value ([2]; PO, 30 mg/kg) was “no significant inhibition”. The “combined stool score endpoint as compared with vehicle treated animals” value [3] was “statistically significant decrease”, the Ki (JAK2) was 10 to 100 nM and the Ki (Tyk2) was over 100 nM.

With `C=CC(=O)N1CCO[C@@H](C(=O)Nc2cc(-c3ccc(O)cc3)cc3[nH]ncc23)C1` [Compound 6, (R)-4-acryloyl-N-(6-(4-hydroxyphenyl)-1H-indazol-4-yl)morpholine-2-carboxamide] the IC50 [1] was under 31.6 nM, the Ki (JAK1) was over 100 nM and the “inhibition … compared to vehicle” value ([2]; PO, 10 mg/kg) was “no significant inhibition”. The “combined stool score endpoint as compared with vehicle treated animals” value [3] was “statistically significant decrease”, the Ki (JAK2) was 10 to 100 nM and the Ki (Tyk2) was over 100 nM.

With `C=CC(=O)N1CC[C@H](COc2cc(-c3ccc(O)cc3)cc3[nH]ncc23)C1` [Compound 7, (S)-1-(3-(((6-(4-hydroxyphenyl)-1H-indazol-4-yl)oxy)methyl)pyrrolidin-1-yl)prop-2-en-1-one] the IC50 [1] was 31.6 to 200 nM, the Ki (JAK1) was over 100 nM and the “inhibition … compared to vehicle” value ([2]; PO, 10 mg/kg) was “no significant inhibition”. The “combined stool score endpoint as compared with vehicle treated animals” value [3] was “statistically significant decrease”, the Ki (JAK2) was 10 to 100 nM and the Ki (Tyk2) was over 100 nM.

With `CN(C)C/C=C/C(=O)N1CC(C#N)(COc2cc(-c3ccc(O)c(F)c3)cc3[nH]ncc23)C1` [Compound 8, (E)-1-(4-(dimethylamino)but-2-enoyl)-3-(((6-(3-fluoro-4-hydroxyphenyl)-1Hindazol-4-yl)oxy)methyl)azetidine-3-carbonitrile] the IC50 [1] was under 31.6 nM, the Ki (JAK1) was over 100 nM and the “inhibition … compared to vehicle” value ([2]; PO, 30 mg/kg) was “no significant inhibition”. For the same compound, the “combined stool score endpoint as compared with vehicle treated animals” value [3] was “statistically significant decrease”, the Ki (JAK2) was 10 to 100 nM and the Ki (Tyk2) was over 100 nM.

For `CN(C)C/C=C/C(=O)N1CCC(C)(Oc2cc(-c3ccc(O)cc3)cc3[nH]ncc23)CC1` [Compound 9, (E)-4-(dimethylamino)-1-(4-((6-(4-hydroxyphenyl)-1H-indazol-4-yl)oxy)-4-methylpiperidin-1-yl)but-2-en-1-one], the IC50 [1] was 31.6 to 200 nM and the Ki (JAK1) was over 100 nM.

`C=CC(=O)N1CC(C(C)(C)Oc2cc(-c3ccc(O)cc3)nc3[nH]ncc23)C1` [Compound 20, 1-(3-(2-((6-(4-hydroxyphenyl)-1H-pyrazolo[3,4-b]pyridin-4-yl)oxy)propan-2-yl)azetidin-1-yl)prop-2-en-1-one] gave an IC50 [1] of under 31.6 nM, a Ki (JAK1) of over 100 nM and a Ki (JAK2) of over 100 nM. For the same compound, the Ki (Tyk2) was over 100 nM.

With `C=CC(=O)N1CC(C)(COc2nc(-c3ccc(O)c(F)c3)nc3[nH]ncc23)C1` [Compound 21, 1-(3-(((6-(3-fluoro-4-hydroxyphenyl)-1H-pyrazolo[3,4-d]pyrimidin-4-yl)oxy)methyl)-3-methylazetidin-1-yl)prop-2-en-1-one] the IC50 [1] was 31.6 to 200 nM, the Ki (JAK1) was over 100 nM and the “combined stool score endpoint as compared with vehicle treated animals” value [3] was “statistically significant decrease”. The Ki (JAK2) was over 100 nM and the Ki (Tyk2) was over 100 nM.

Compound `C=CC(=O)N1CC(CC)(COc2cc(-c3ccc(O)cc3)nc3[nH]ncc23)C1` [Compound 22, 1-(3-ethyl-3-(((6-(4-hydroxyphenyl)-1H-pyrazolo[3,4-b]pyridin-4-yl)oxy)methyl)azetidin-1-yl)prop-2-en-1-one] has an IC50 [1] of 31.6 to 200 nM, a Ki (JAK1) of over 100 nM and a Ki (JAK2) of over 100 nM. It also gave a Ki (Tyk2) of over 100 nM.
